Test results: publication PMC4492750, “The discovery of a selective and potent A2a agonist with extended lung retention” (Pharmacology Research & Perspectives, 2015)
Values after ≈ are worked out from the molar mass of the structure shown. Read-outs that look alike come from different tables or passages of the source.

Tests used:
[1] = system: LPS-induced TNFα production in rat splenocytes; test: LPS-induced TNFα production in rat mononuclear spleen cells (rTNFα splenocytes); type: cell-based; conditions: Splenocyte, LPS-stimulated TNFα release, rat splenocytes, average (SD); for Emax: read-out: rTNFα splenocytes Intrinsic activity
Protocol: (§1) • Human A2a and A2b receptor pharmacology: Chinese hamster ovary CHO-K1 cells stably expressing human A2a and A2b receptors were used to determine substances agonistic potency and intrinsic activity. […] The signal corresponding to adenosine at 100 μmol/L was used to define 100% intrinsic activity. • Human A3 receptor pharmacology: A3 receptor Gi coupling was measured by GTPγ ^35[S] filter assay at serial dilutions of compound using membranes from Perkin-Elmer. The signal corresponding to the maximal response of NECA at 100 μmol/L was set to 100% intrinsic activity. • Lipopolysaccharide (LPS)-induced TNFα production in primary human peripheral blood mononuclear cells (hTNFα PBMC) and rat mononuclears (rTNFα splenocytes): Human PBMC and rat mononuclear spleen cells were incubated with serial dilutions of compound and stimulated with LPS.
Procedures and assays were run in R10 buffer (RPMI 1640 Medium supplemented with GlutaMAX™ and HEPES (GIBCO-BRL), 10% fetal calf serum, penicillin and streptomycin (each 5000IU/ml)). Human PBMC were purified from heparinised blood by Ficoll separation (Ficoll, Amersham Pharmacia Biotech AB, Cat: 17-1440-03, Lot: 312170) and rat mononuclear cells were collected after rat spleen perfusion. Both cell preparations were followed by hypotonic lysis of residual erythrocytes. Serial dilutions of compounds were pre-incubated with 200 000 cells/well (96-well plate) for 45min in 37 °C (190µl). Cells were stimulated by 10µl LPS (final concentration 0.5ng/ml human and 150ng/ml rat; SIGMA Cat: L-4516, Lot: 104K4036) for 18h at 37 °C. TNFα release was measured by ELISA (^TmR&D Systems plates) according to the manufacturer’s instructions in cell free supernatant.

[2] = system: LPS-induced BAL neutrophils; test: LPS-induced lung inflammation model, neutrophils in BAL fluid; type: in vivo, rat; conditions: data not shown
Protocol: The efficacy of the compound on neutrophils in BAL fluid is expressed as per cent inhibition of the full window (negative veh/veh controls vs. the positive veh/LPS controls): Inhibition (%) of LPS-induced BAL neutrophils by compound 2 was calculated using the following formula: [drawing 1] where A is the average in the group administered with vehicle and challenged with LPS; B is the average in the group administered with vehicle and challenged with saline; and C is the average in the group administered with test compound and challenged with LPS.
Animals in all efficacy studies were dosed intratracheally as described above in a buffered saline vehicle (pH 5) containing sodium chloride (8.5mg/ml), citric acid (0.28mg/ml) and sodium citrate (0.5mg/ml). The compound was dissolved in saline when given intravenously (0.9% NaCl) to the swivelled rats.
[…] Each rat was given LPS from the Pseudomona Aeruginosa bacteria (1µg/rat, 5µg/ml saline, Sigma-Aldrich, Sweden).
24 hours after the LPS challenge, rats were anaesthetized and exsanguinated via a cardiac incision. A tube was inserted and ligated to the trachea. The tube was connected to a syringe with 4ml PBS (without Ca^2+/Mg^2+) and a lavage of the whole lung was performed manually. The BAL fluid was collected individually in polyethylene tubes and kept on ice until further processed.
The BAL fluid was centrifuged and the supernatant separated from the cell pellet that was resuspended in 1.0ml of PBS. The total number of cells and cell differentia was counted in an automated cell counter and haematology analyzer (SYSMEX XT-1800iV, software for the rat BALF).

[3] = Lipophilicity (LogD), shake flask; type: physicochemical; conditions: octanol-water, phosphate buffer pH 7.4; for logD at 10 min: 1-octanol / phosphate buffer
Protocol: as §1
The octanol-water partition coefficient (LogD) was measured using the shake flask method. 600µL of 1-octanol was added to a vial with 6µL of 10mM DMSO-solution of the test compound. 600µL of 10mM sodium phosphate buffer adjusted to pH 7.4 was added and equilibrium was performed by vigorous shaking for ten minutes with an Eppendorf mixer. The phases were separated by centrifugation. The samples were analysed by HPLC with UV-detection at 254nm.

[4] = Plasma protein binding by equilibrium dialysis; type: in vitro ADME; conditions: male, Wistar, pH 7.4, rat plasma, 10 μmol/L, read-out: fu rat (free unbound drug in plasma)
Protocol: as §1
The plasma protein binding was determined in plasma from male Wistar rats at a compound concentration of 10μM by equilibrium dialysis against a phosphate buffer at pH 7.4 using a semi-permeable membrane with a molecular cut-off of 6-8KDa (Spectra/Por, Spectrum Laboratories Inc, US). The compounds were dialyzed for 18h at 37±1°C in an air incubator on an orbital shaker. The samples were analysed using LC-MS/MS.

[5] = system: allergen-challenged Brown Norway rats; set-up: method as in Fozard et al. [2002]; conditions: intratracheal; ref Fozard et al. [2002]; cited from earlier work
[6] = In vivo pharmacokinetics in rats (i.v., oral, intratracheal); conditions: for Rat blood clearance: i.v.; for half-life: lung, inhaled or intranasal, intratracheal dosing, n = 2/time point, read-out: Lung t½ (terminal half-life in lung) (converted); for Kp at 24 h: other: intratracheal (i.t.), i.t., ratio of lung concentration 24 h after dose to blood Cmax after same dose, read-out: Lung/blood split
Protocol: Rat PK was determined after an i.v. dose of 0.1μmol/kg (approximately 50μg/kg, 1ml/kg, TEG:H2O 50:50) given via a catheter in vena jugularis. The PK after oral administration was performed at a dose of 6μmol/kg (approximately 3mg/kg, 4ml/kg, 0.5% HPMC) given by gavage. Intratracheal PK was determined at 0.03 to 0.6μmol/kg (17 to 300μg/kg, 1ml/kg, in a vehicle containing sodium chloride (8.5mg/ml), EDTA (0.1mg/ml), citric acid (0.15mg/ml), sodium citrate (0.5mg/ml) and polysorbate 80 (0.2mg/mL) in purified water). The i.t. dose was given to anaesthetized (isofluran) rats, positioned at approximately 30° angle (head up) and the compound was administered in the trachea using a modified metal cannula. Rats were put back in their cages while regaining consciousness. Serial blood sampling of 100 to 200µl was performed after i.v. and p.o. dosing at pre-defined timepoints. Blood was mixed 1:4 with purified water containing heparin (10 to 30U/ml) in order to haemolyse the blood cells, and then placed in a 96-well plate and stored at –70°C until analysed. The dilution factor was accounted for in the data analysis. After i.t. dosing, animals were euthanized with isoflurane or pentobarbital at defined timepoints after dosing, blood samples taken from the vena jugularis or arteria carotis, handled and stored as described above. The rats were bled to drain as much blood as possible from the lungs. The lungs including the trachea were carefully dissected out with all non-relevant tissue removed, placed in pre-weighed vials and weighed. The lung vials were stored at –70°C until analyzed.
Lung tissue was frozen in liquid nitrogen and homogenised using a CryoPrep pneumatic hammer. The homogenisation of the tissue and the extraction of the compound were done in 4ml Ringer solution with an Adaptive Focused Acoustic Instrument. 50µl of the supernatant was transferred to a 96-well plate. All lung, blood and plasma samples were analysed by LC-MS/MS using a selective and sensitive method. Peak areas were used in comparison to those produced by the standard curve to determine parent compound concentrations. Homogenate concentrations were adjusted to account for the sample dilutions to give tissue concentrations.

[7] = biological target: A2a (Homo sapiens, UniProt P29274); test: Human A2a receptor pharmacology: cAMP Alphascreen in CHO-K1 cells; type: cell-based; set-up: expressed in transfected cells; host or cells: CHO-K1; conditions: average (SD); for Emax: CHO-K1, 100% = 10 μmol/L NECA, read-out: A2a human CHO-K1 cells Intrinsic activity; for EC50: cAMP generation
Protocol: as §1
Chinese hamster ovary CHO-K1 cells stably expressing human A2a and A2b receptors were stored as 1ml aliquots at -150 °C in freezing medium, thawed immediately prior to assay. […] Cells (10000 cells/well) were incubated with test compounds prepared as serial dilutions. Potency (EC50) and efficacy (% of maximal response) were calculated from data fitted to a 4-parameter logistic function. The signal of 10µM NECA represented the maximal cAMP response (i.e. 100% of efficacy) produced by these cells.

[8] = Substance solubility in phosphate buffer; type: physicochemical; conditions: aqueous buffer, thermodynamic from solid; phosphate buffer pH 7.4, dry compound in solid state
Protocol: as §1
Solubility was measured in phosphate buffer at pH 7.4 using dry compounds in solid state.

[9] = system: heart; set-up: method as in Macallum et al. [1991]; conditions: oral, dog study; ref Macallum et al. [1991]; cited from earlier work
[10] = system: patients with COPD; set-up: method as in Mantell et al. [2009], [2010]; conditions: ref Mantell et al. [2009], [2010]; cited from earlier work
[11] = set-up: method as in Mantell et al. [2010]; conditions: ref Mantell et al. [2010]; cited from earlier work
[12] = set-up: method as in Mantell et al. [2009], [2010]; conditions: over the dose range tested; ref Mantell et al. [2009], [2010]; cited from earlier work

Chain of A2a (P29274 whole entry): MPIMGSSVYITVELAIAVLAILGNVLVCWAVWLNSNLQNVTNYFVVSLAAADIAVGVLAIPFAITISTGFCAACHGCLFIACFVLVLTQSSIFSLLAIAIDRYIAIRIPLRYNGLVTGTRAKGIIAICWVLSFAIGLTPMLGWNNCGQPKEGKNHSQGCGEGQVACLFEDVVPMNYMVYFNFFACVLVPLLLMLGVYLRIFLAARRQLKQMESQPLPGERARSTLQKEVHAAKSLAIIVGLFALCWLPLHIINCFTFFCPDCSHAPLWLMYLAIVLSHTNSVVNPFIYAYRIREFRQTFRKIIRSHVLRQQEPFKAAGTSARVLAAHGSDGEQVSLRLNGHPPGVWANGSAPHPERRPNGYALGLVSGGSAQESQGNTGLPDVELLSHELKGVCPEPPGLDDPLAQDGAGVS

Row | IC50 [1] [nM] | logD at 10 min [3] | fraction unbound at 18 h, 10 μM [4] | Rat blood clearance ([6]; mean of n = 3) [mL/min per kg] | half-life ([6]; rat) [h] | Kp at 24 h ([6]; rat) | Emax [7] [%] | EC50 [7] [nM] | solubility [8] [µM] | SMILES | Emax [1] [%] | other results
1 | 6.9 | < -1 | 0.17 | 26 | 1 | < 0.08 |  |  |  | CCNC(=O)[C@H]1O[C@@H](n2cnc3c(N)nc(NCCc4ccc(CCC(=O)O)cc4)nc32)[C@H](O)[C@@H]1O [CGS21680, 3-[4-[2-[[6-amino-9-[(2R,3R,4S,5S)-5-(ethylcarbamoyl)-3,4-dihydroxy-tetrahydrofuran-2-yl]purin-2-yl]amino]ethyl]phenyl]propanoic acid, reference compound] | 63.5 | Pretreatment time at which maximal efficacy was seen [2]: 30 min; Effect on lung inflammation [5]: inhibited lung inflammation; Percentage of dose remaining in lung at 4 h ([6]; rat, single i.t. dose 300 μg/kg, 4 h): less than 1%
2 | 3.2 | 2 | 0.2 | 65 | 6 | 1.8 | 102 | 2.4 | > 1000 | CCNC(=O)[C@H]1O[C@@H](n2cnc3c(NC(CC)CC)nc(NCCNC(=O)Nc4ccncc4)nc32)[C@H](O)[C@@H]1O [Compound 1, (2S,3S,4R,5R)-N-ethyl-5-[6-(1-ethylpropylamino)-2-[2-(4-pyridylcarbamoylamino)ethylamino]purin-9-yl]-3,4-dihydroxy-tetrahydrofuran-2-carboxamide] | 53.4 | bioavailability ([6]; whole blood, 6 umol/kg, rat, oral, mean of n = 3, read-out: Rat oral F (bioavailability)): 1.4%

The remaining lines, values behind:

Row | SMILES | IC50 [1] [nM] | logD at 10 min [3] | fraction unbound at 18 h, 10 μM [4] | Rat blood clearance ([6]; mean of n = 3) [mL/min per kg] | half-life ([6]; rat) [h] | Kp at 24 h ([6]; rat) | Emax [7] [%] | EC50 [7] [nM] | solubility [8] [µM] | Emax [1] [%] | other results
3 | CCNC(=O)[C@H]1O[C@@H](n2cnc3c(NCC(c4ccccc4)c4ccccc4)nc(NCCNC(=O)Nc4cc[n+](C)cc4)nc32)[C@H](O)[C@@H]1O [Compound 3, (2S,3S,4R,5R)-5-[6-(2,2-diphenylethylamino)-2-[2-[(1-methylpyridin-1-ium-4-yl)carbamoylamino]ethylamino]purin-9-yl]-N-ethyl-3,4-dihydroxy-tetrahydrofuran-2-carboxamide] | 0.2 | -0.35 | 0.11 | 42 | 80 | 1800 | 96.2 | 0.4 | 420 | 58 | Percentage of dose remaining in lung at 24 h ([6]; rat, single i.t. dose (17 and 20 μmol/kg for compounds 2 and 3 as printed in Fig. 5), 24 h): 52%
4 | OC[C@H]1O[C@@H](n2cnc3c(NCC(c4ccccc4)c4ccccc4)ncnc32)[C@H](O)[C@@H]1O [DPEA, N-(2,2-diphenylethyl) adenosine] |  |  |  |  |  |  |  |  |  |  | Myocardial findings [9]: myocardial degeneration and necrosis
5 | CCNC(=O)[C@H]1O[C@@H](n2cnc3c(NCC(c4ccccc4)c4ccccc4)nc(C(=O)NCCNC(=O)NC4CCN(c5ccccn5)CC4)nc32)[C@H](O)[C@@H]1O [UK-432,097, 6-(2,2-diphenylethylamino)-9-[(2R,3R,4S,5S)-5-(ethylcarba-moyl)-3,4-dihydroxy-tetrahydrofuran-2-yl]-N-[2-[[1-(2-pyridyl)-4-piperidyl]carbamoylamino]ethyl]purine-2-carboxamide, reference compound] | 2.6 |  | 0.014 | 37 | 4 | 2.7 |  |  | 12 (≈ 9.33 µg/mL) | 60.9 | LogD [3]: 3.4; Efficacy in Phase II study [10]: failed to show efficacy; Percentage of dose remaining in lung at 6 h ([6]; rat, i.t. dose 130 μg/kg, 6 h): approximately 3%; Clearance [11]: rapid; Oral bioavailability [11]: low; Plasma protein binding [11]: high; solubility [11]: low; Safety in Phase I clinical study [12]: no safety limitation
